Measurements taken from PubChem BioAssay AID2060326 (Molecular Pharmacology Branch, DTP, NCI, 2025).

Tested on: MDA-MB-468 multi-cell spheroids, viability
Experiment: Anticancer human tumor MDA-MB-468 cell line growth inhibition [IpAb];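 further: spheroids exposed to agents for seven days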;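 on viability, T/C: 100% = DMSO vehicle control viability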
Settings: for IC50: curve of first compound; for viability, T/C: stronger effect = lower value
In short: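 Multi-cell spheroids of 60% tumour cells, 25% HUVEC and 15% MSC in ultra-low-attachment U-bottom wells, treated with agents combined with ipatasertib or abemaciclib. Half-log ranges top out near clinical Cmax, or 10 microM when Cmax is unknown.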

[1] = second compound 0.01 µM, first compound 0.0316 µM
[2] = second compound 0.01 µM, first compound 0.1 µM
[3] = second compound 0.01 µM, first compound 0.316 µM
[4] = second compound 0.01 µM, first compound 1 µM
[5] = second compound 0.01 µM, first compound 3.16 µM
[6] = second compound 0.01 µM, first compound 10 µM
[7] = second compound 0.0316 µM, first compound 0.0316 µM
[8] = second compound 0.0316 µM, first compound 0.1 µM
[9] = second compound 0.0316 µM, first compound 0.316 µM
[10] = second compound 0.0316 µM, first compound 1 µM
[11] = second compound 0.0316 µM, first compound 3.16 µM
[12] = second compound 0.0316 µM, first compound 10 µM
[13] = second compound 0.1 µM, first compound 0.0316 µM
[14] = second compound 0.1 µM, first compound 0.1 µM
[15] = second compound 0.1 µM, first compound 0.316 µM
[16] = second compound 0.1 µM, first compound 1 µM
[17] = second compound 0.1 µM, first compound 3.16 µM
[18] = second compound 0.1 µM, first compound 10 µM
[19] = second compound 0.316 µM, first compound 0.0316 µM
[20] = second compound 0.316 µM, first compound 0.1 µM
[21] = second compound 0.316 µM, first compound 0.316 µM
[22] = second compound 0.316 µM, first compound 1 µM
[23] = second compound 0.316 µM, first compound 3.16 µM
[24] = second compound 0.316 µM, first compound 10 µM
[25] = second compound 1 µM, first compound 0.0316 µM
[26] = second compound 1 µM, first compound 0.1 µM
[27] = second compound 1 µM, first compound 0.316 µM
[28] = second compound 1 µM, first compound 1 µM
[29] = second compound 1 µM, first compound 3.16 µM
[30] = second compound 1 µM, first compound 10 µM

| Structure (SMILES) | IC50 (second compound 0.01 µM) | IC50 (second compound 0.0316 µM) | IC50 (second compound 0.1 µM) | IC50 (second compound 0.316 µM) | IC50 (second compound 1 µM) | viability, T/C [1] | viability, T/C [2] | viability, T/C [3] | viability, T/C [4] | viability, T/C [5] | viability, T/C [6] | viability, T/C [7] | viability, T/C [8] | viability, T/C [9] | viability, T/C [13] | viability, T/C [14] | viability, T/C [19] | viability, T/C [20] | viability, T/C [25] | viability, T/C [26] | also measured |
| --- | --- | --- | --- | --- | --- | --- | --- | --- | --- | --- | --- | --- | --- | --- | --- | --- | --- | --- | --- | --- | --- |
| C=CC(=O)N1CCN(c2nc(=O)n(-c3c(C)ccnc3C(C)C)c3nc(-c4c(O)cccc4F)c(F)cc23)C(C)C1 (stereo not given) + CCN1CCN(Cc2ccc(Nc3ncc(F)c(-c4cc(F)c5nc(C)n(C(C)C)c5c4)n3)nc2)CC1 | 7470 nM | 7210 nM | 6740 nM | 6440 nM | 7150 nM | 109% | 117% | 110% | 113% | 93.2% | 35.1% | 98.6% | 90.9% | 108% | 101% | 106% | 103% | 108% | 84.2% | 73% | viability, T/C [10]: 91.7%; viability, T/C [11]: 79.8%; viability, T/C [12]: 38.3%; viability, T/C [15]: 100%; viability, T/C [16]: 110%; viability, T/C [17]: 97.6%; viability, T/C [18]: 24.8%; viability, T/C [21]: 116%; viability, T/C [22]: 103%; viability, T/C [23]: 83.7%; viability, T/C [24]: 29.2%; viability, T/C [27]: 81.8%; viability, T/C [28]: 82.7%; viability, T/C [29]: 74.7%; viability, T/C [30]: 39.6% |
| Cn1ncc(Cl)c1-c1cc(C(=O)NC(CN)Cc2cccc(F)c2)sc1Cl (stereo not given) + CCN1CCN(Cc2ccc(Nc3ncc(F)c(-c4cc(F)c5nc(C)n(C(C)C)c5c4)n3)nc2)CC1 | 461 nM | 319 nM | 318 nM | 396 nM | 223 nM | 88.4% | 74.1% | 57.7% | 36.6% | 11.8% | 0.13% | 97.3% | 58.5% | 48% | 109% | 72% | 81.2% | 72.6% | 81.5% | 52.9% | viability, T/C [10]: 34.1%; viability, T/C [11]: 15.1%; viability, T/C [12]: 0.12%; viability, T/C [15]: 51.5%; viability, T/C [16]: 31.8%; viability, T/C [17]: 11.2%; viability, T/C [18]: 0.11%; viability, T/C [21]: 53.4%; viability, T/C [22]: 32.6%; viability, T/C [23]: 5.2%; viability, T/C [24]: 0.11%; viability, T/C [27]: 53.4%; viability, T/C [28]: 26%; viability, T/C [29]: 2.78%; viability, T/C [30]: 0.19% |
| Cn1ncnc1[C@H]1c2n[nH]c(=O)c3cc(F)cc(c23)N[C@@H]1c1ccc(F)cc1 + CCN1CCN(Cc2ccc(Nc3ncc(F)c(-c4cc(F)c5nc(C)n(C(C)C)c5c4)n3)nc2)CC1 | > 100 nM | > 100 nM | > 100 nM | > 100 nM | > 100 nM | 89.6% | 63.1% |  |  |  |  | 91.6% | 54% |  | 78.5% | 63.7% | 78.2% | 70.1% | 66.6% | 68.9% | viability, T/C (second compound 0.01 µM, first compound 0.000316 µM): 89%; viability, T/C (second compound 0.01 µM, first compound 0.001 µM): 91.1%; viability, T/C (second compound 0.01 µM, first compound 0.00316 µM): 89.2%; viability, T/C (second compound 0.01 µM, first compound 0.01 µM): 82.8%; viability, T/C (second compound 0.0316 µM, first compound 0.000316 µM): 89.1%; viability, T/C (second compound 0.0316 µM, first compound 0.001 µM): 82.4%; viability, T/C (second compound 0.0316 µM, first compound 0.00316 µM): 92%; viability, T/C (second compound 0.0316 µM, first compound 0.01 µM): 73.2%; viability, T/C (second compound 0.1 µM, first compound 0.000316 µM): 92%; viability, T/C (second compound 0.1 µM, first compound 0.001 µM): 103%; viability, T/C (second compound 0.1 µM, first compound 0.00316 µM): 94.9%; viability, T/C (second compound 0.1 µM, first compound 0.01 µM): 97.5%; viability, T/C (second compound 0.316 µM, first compound 0.000316 µM): 92.8%; viability, T/C (second compound 0.316 µM, first compound 0.001 µM): 85%; viability, T/C (second compound 0.316 µM, first compound 0.00316 µM): 86.6%; viability, T/C (second compound 0.316 µM, first compound 0.01 µM): 90.2%; viability, T/C (second compound 1 µM, first compound 0.000316 µM): 86.7%; viability, T/C (second compound 1 µM, first compound 0.001 µM): 83.5%; viability, T/C (second compound 1 µM, first compound 0.00316 µM): 82.3%; viability, T/C (second compound 1 µM, first compound 0.01 µM): 68.2% |
